Values joined by “and” are separate entries in the source; they are usually repeats but may differ in a detail not shown here. Equal values may be shown once.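 Method: 48-hour compound exposure of cells in 96-well plates, five concentrations, linear interpolation of endpoints. Here, GI50 denotes the concentration required for 50% inhibition of growth. TGI is the concentration that stops growth completely.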
Key:
Test in all cases: NCI tumour cell line growth inhibition, 48 h
UACC-257 melanoma = system: UACC-257 melanoma
NCI/ADR-RES ovarian = system: NCI/ADR-RES ovarian
SNB-19 CNS = system: SNB-19 CNS
K-562 leukemia = system: K-562 leukemia
NCI-H460 lung = system: NCI-H460 lung
HCT-15 colon = system: HCT-15 colon
A549 NSCLC = system: A549 NSCLC
SF-268 CNS = system: SF-268 CNS
UACC-62 melanoma = system: UACC-62 melanoma
KM12 colon = system: KM12 colon
HOP-62 NSCLC = system: HOP-62 NSCLC
ACHN renal = system: ACHN renal
SW-620 colon = system: SW-620 colon
MDA-MB-435 = system: MDA-MB-435
BT-549 breast = system: BT-549 breast
COLO 205 colon = system: COLO 205 colon
MCF7 breast = system: MCF7 breast
NCI-H522 lung = system: NCI-H522 lung
DU-145 prostate = system: DU-145 prostate
RPMI-8226 leukemia = system: RPMI-8226 leukemia
RXF 393 renal = system: RXF 393 renal
CAKI-1 renal = system: CAKI-1 renal
HOP-92 NSCLC = system: HOP-92 NSCLC
SN12C renal = system: SN12C renal
SK-MEL-28 melanoma = system: SK-MEL-28 melanoma
MOLT-4 leukemia = system: MOLT-4 leukemia
LOX IMVI melanoma = system: LOX IMVI melanoma
UO-31 renal = system: UO-31 renal
SK-OV-3 ovarian = system: SK-OV-3 ovarian
SF-295 CNS = system: SF-295 CNS
M14 melanoma = system: M14 melanoma
HS 578T breast = system: HS 578T breast
EKVX NSCLC = system: EKVX NSCLC
SNB-75 CNS = system: SNB-75 CNS
HCC-2998 colon = system: HCC-2998 colon
OVCAR-3 ovarian = system: OVCAR-3 ovarian
HT29 colon = system: HT29 colon
TK-10 renal = system: TK-10 renal
SK-MEL-2 melanoma = system: SK-MEL-2 melanoma
MALME-3M melanoma = system: MALME-3M melanoma
OVCAR-5 ovarian = system: OVCAR-5 ovarian
T-47D breast = system: T-47D breast
OVCAR-8 ovarian = system: OVCAR-8 ovarian
HL-60(TB) leukemia = system: HL-60(TB) leukemia
IGROV1 ovarian = system: IGROV1 ovarian
786-0 renal = system: 786-0 renal
U251 CNS = system: U251 CNS
SF-539 CNS = system: SF-539 CNS
SR leukemia = system: SR leukemia
A498 renal = system: A498 renal
MDA-MB-231 breast = system: MDA-MB-231 breast
OVCAR-4 ovarian = system: OVCAR-4 ovarian
HCT-116 colon = system: HCT-116 colon
SK-MEL-5 melanoma = system: SK-MEL-5 melanoma
NCI-H226 lung = system: NCI-H226 lung

N#C/C(C(=S)Nc1ccccc1)=C1/NN=C2c3ccccc3C(=O)NN21
GI50 (UACC-257 melanoma): 39 µM | TGI (UACC-257 melanoma): > 100 µM | GI50 (NCI/ADR-RES ovarian): 20.6 µM | TGI (NCI/ADR-RES ovarian): 58.8 µM | GI50 (SNB-19 CNS): 30.4 µM | TGI (SNB-19 CNS): > 100 µM | GI50 (K-562 leukemia): 22.1 µM | TGI (K-562 leukemia): > 100 µM | GI50 (NCI-H460 lung): 26.3 µM | TGI (NCI-H460 lung): 73.2 µM | GI50 (HCT-15 colon): 27.6 µM | TGI (HCT-15 colon): > 100 µM | GI50 (A549 NSCLC): 34 µM | TGI (A549 NSCLC): > 100 µM | GI50 (SF-268 CNS): 35.3 µM | TGI (SF-268 CNS): > 100 µM | GI50 (UACC-62 melanoma): 31.5 µM | TGI (UACC-62 melanoma): > 100 µM | GI50 (KM12 colon): 16.1 µM | TGI (KM12 colon): 58.4 µM | GI50 (HOP-62 NSCLC): 44.4 µM | TGI (HOP-62 NSCLC): > 100 µM | GI50 (ACHN renal): 35.5 µM | TGI (ACHN renal): > 100 µM | GI50 (SW-620 colon): 28.7 µM | TGI (SW-620 colon): > 100 µM | GI50 (MDA-MB-435): 7.8 µM | TGI (MDA-MB-435): 24.3 µM | GI50 (BT-549 breast): 24.3 µM | TGI (BT-549 breast): 80 µM | GI50 (COLO 205 colon): 24.9 µM | TGI (COLO 205 colon): > 100 µM | GI50 (MCF7 breast): 22.8 µM | TGI (MCF7 breast): 77.5 µM | GI50 (NCI-H522 lung): 11.8 µM | TGI (NCI-H522 lung): 63.3 µM | GI50 (DU-145 prostate): 28.8 µM | TGI (DU-145 prostate): > 100 µM | GI50 (RPMI-8226 leukemia): 32.3 µM | TGI (RPMI-8226 leukemia): > 100 µM | GI50 (RXF 393 renal): 0.512 µM | TGI (RXF 393 renal): 22.9 µM | GI50 (CAKI-1 renal): 34.7 µM | TGI (CAKI-1 renal): > 100 µM | GI50 (HOP-92 NSCLC): 29.2 µM | TGI (HOP-92 NSCLC): 88.7 µM | GI50 (SN12C renal): 40.7 µM | TGI (SN12C renal): > 100 µM | GI50 (SK-MEL-28 melanoma): 25.3 µM | TGI (SK-MEL-28 melanoma): 97.7 µM | GI50 (MOLT-4 leukemia): 32.1 µM | TGI (MOLT-4 leukemia): > 100 µM | GI50 (LOX IMVI melanoma): 19.9 µM | TGI (LOX IMVI melanoma): 52.8 µM | GI50 (UO-31 renal): 33.4 µM | TGI (UO-31 renal): > 100 µM | GI50 (SK-OV-3 ovarian): 19.6 µM | TGI (SK-OV-3 ovarian): 59.8 µM | GI50 (SF-295 CNS): 17.1 µM | TGI (SF-295 CNS): 49.5 µM | GI50 (M14 melanoma): 19.3 µM | TGI (M14 melanoma): 40.6 µM | GI50 (HS 578T breast): 22.7 µM | TGI (HS 578T breast): 57.2 µM | GI50 (EKVX NSCLC): 35.3 µM | TGI (EKVX NSCLC): > 100 µM | GI50 (SNB-75 CNS): 16.6 µM | TGI (SNB-75 CNS): 43.5 µM | GI50 (HCC-2998 colon): 24.1 µM | TGI (HCC-2998 colon): > 100 µM | GI50 (OVCAR-3 ovarian): 21.2 µM | TGI (OVCAR-3 ovarian): 52.7 µM | GI50 (HT29 colon): 29.2 µM | TGI (HT29 colon): > 100 µM | GI50 (TK-10 renal): 21.2 µM | TGI (TK-10 renal): 50.4 µM | GI50 (SK-MEL-2 melanoma): 21 µM | TGI (SK-MEL-2 melanoma): 53.8 µM | GI50 (MALME-3M melanoma): 13.9 µM | TGI (MALME-3M melanoma): > 100 µM | GI50 (OVCAR-5 ovarian): 56.1 µM | TGI (OVCAR-5 ovarian): > 100 µM | GI50 (T-47D breast): 36.7 µM | TGI (T-47D breast): > 100 µM | GI50 (OVCAR-8 ovarian): 32 µM | TGI (OVCAR-8 ovarian): > 100 µM | GI50 (HL-60(TB) leukemia): 22 µM | TGI (HL-60(TB) leukemia): 61.7 µM | GI50 (IGROV1 ovarian): 35.6 µM | TGI (IGROV1 ovarian): > 100 µM | GI50 (786-0 renal): 38 µM | TGI (786-0 renal): > 100 µM | GI50 (U251 CNS): 32.1 µM | TGI (U251 CNS): > 100 µM | GI50 (SF-539 CNS): 18.7 µM | TGI (SF-539 CNS): 40.9 µM | GI50 (SR leukemia): 19.5 µM | TGI (SR leukemia): > 100 µM | GI50 (A498 renal): 21.3 µM | TGI (A498 renal): 53.1 µM | GI50 (MDA-MB-231 breast): 29.5 µM | TGI (MDA-MB-231 breast): > 100 µM | GI50 (OVCAR-4 ovarian): 26.2 µM | TGI (OVCAR-4 ovarian): 91.2 µM | GI50 (HCT-116 colon): 29.2 µM | TGI (HCT-116 colon): > 100 µM | GI50 (SK-MEL-5 melanoma): 17 µM | TGI (SK-MEL-5 melanoma): 41.1 µM | GI50 (NCI-H226 lung): 49.6 µM | TGI (NCI-H226 lung): > 100 µM

CC(=O)OCC1OC(n2c(-c3ccccc3)cc(-c3ccccc3)c(C#N)c2=O)C(OC(C)=O)C(OC(C)=O)C1OC(C)=O (stereo not given)
GI50 (RPMI-8226 leukemia): 16 µM and 39.7 µM | TGI (RPMI-8226 leukemia): > 100 µM | TGI (RXF 393 renal): > 100 µM | GI50 (SNB-75 CNS): 22 µM and 98.5 µM | TGI (SNB-75 CNS): > 100 µM
